Assays:
TAC-stressed hearts = assay: TAC pressure-overload cardiac hypertrophy in mice treated with thiostrepton; format: in vivo
Procedure: (§1) FoxM1 is a transcription factor that regulates the expression of genes associated with pathological hypertrophy. […] However, FoxM1 mRNA increased by 8.4-fold in TAC-stressed hearts (FIG. 6A), and the protein was present in the nuclei of both myocytes and endothelial cells of stressed hearts (FIGS. 6B and 6C). Because of the stress-induced endothelial expression of FoxM1, it was evaluated if FoxM1 cooperated with Brg1 to regulate Ace and Ace2 expression. The necessity of FoxM1 activation for cardiac hypertrophy by using FoxM1 inhibitor thiostrepton to inhibit FoxM1 in TAC-stressed hearts was tested. Within 4 weeks after TAC, the control mice injected with DMSO developed severe cardiac hypertrophy with increased ventricle-body weight ratio, interstitial fibrosis, and cardiac dysfunction with reduced left ventricular fractional shortening (FS) (FIGS. 6D, 6E, and 6G). […] Collectively, these findings indicate that FoxM1 activation by stress is necessary for cardiac myopathy and for stress-induced changes of Ace and Ace2.

Ace and Ace2 = assay: Western blot analysis of Ace and Ace2 in heart ventricles of thiostrepton treated mice after TAC; format: in vivo; details: 2 weeks after TAC
Procedure: as §1

Ace and Ace2 promoter = assay: Luciferase reporter assays of Ace and Ace2 proximal promoters in mouse cardiac endothelial cells; format: cell-based; details: MCEC cells
Procedure: The transcriptional activity of Brg1 on the Ace and Ace2 promoters was also tested. 3.1 kb of Ace upstream promoter (−2983 bp to +174 bp) and 7.8 Kb of Ace2 upstream promoter (−7063 bp to +786 bp) were cloned into the episomal reporter pREP4 that undergoes chromatinization in mammalian cells. The reporter constructs and Brg1-expressing plasmid were transfected into mouse cardiac endothelial cells. In these cells, Brg1 caused a 1.7-fold increase in Ace promoter activity and 59% reduction in Ace2 promoter activity (FIG. 5P). Combined with the ChIP results, these reporter studies indicate that Brg1 activates Ace promoter and represses Ace2 promoter, providing a mechanism for the antithetical changes of Ace and Ace2 in stressed hearts.
Inhibition of FoxM1 by thiostrepton eliminated the ability of Brg to activate Ace and repress Ace2 promoter (FIGS. 10F and 10G).

With `C=C(NC(=O)C(=C)NC(=O)c1csc(C2=N[C@@H]3c4csc(n4)[C@H]4NC(=O)c5csc(n5)[C@H]([C@](C)(O)[C@@H](C)O)NC(=O)[C@H]5CSC(=N5)/C(=C/C)NC(=O)[C@H]([C@@H](C)O)NC(=O)c5csc(n5)[C@]3(CC2)NC(=O)[C@H](C)NC(=O)C(=C)NC(=O)[C@H](C)NC(=O)[C@H]([C@@H](C)CC)N[C@@H]2C=Cc3c([C@H](C)O)cc(nc3[C@H]2O)C(=O)O[C@@H]4C)n1)C(N)=O` [thiostrepton] the “improvement of left ventricular fractional shortening (FS)” value (TAC-stressed hearts; 4 weeks after TAC, echocardiography, vs DMSO control) was 28%, the “reduction of hypertrophy (ventricle-body weight ratio)” value (TAC-stressed hearts; 4 weeks after TAC, vs DMSO control) was about 50% and the cardiac dysfunction (TAC-stressed hearts; within 4 weeks after TAC) was “lesser degree of cardiac dysfunction”. For the same compound, the interstitial fibrosis (TAC-stressed hearts; within 4 weeks after TAC, trichrome staining) was “mild interstitial fibrosis”, the cardiac hypertrophy (TAC-stressed hearts; within 4 weeks after TAC, vs DMSO control) was “mild cardiac hypertrophy” and the “TAC-induced changes of Ace and Ace2” value (Ace and Ace2; Western blot of heart ventricles) was “abolished”. The “reduction of Ace/Ace2 ratio in stressed hearts” value (Ace and Ace2; Western blot quantitation) was 6.53 fold and the “ability of Brg to activate Ace and repress Ace2 promoter” value (Ace and Ace2 promoter) was “eliminated”.
